Laboratory results taken from US12653800B2, “Small molecule inhibitors of TLR2 signaling” (University of Maryland, Baltimore, priority 2015, dated 2026).

How the values were obtained:
Assay type in all cases: cell-based
TLR2/1 [1] = molecular target: TLR2/1 (Mus musculus, UniProt Q9QUN7); experiment: Cytokine mRNA/protein in murine peritoneal macrophages stimulated with TLR2/1 agonists (P3C, LTA SA)
TLR2/6 [2] = molecular target: TLR2/6 (Mus musculus, UniProt Q9QUN7); experiment: Cytokine mRNA in murine peritoneal macrophages stimulated with TLR2/6 agonists (P2C, zymosan)
Chain of TLR2/6 (Mus musculus, UniProt Q9QUN7) (Q9QUN7 25-784): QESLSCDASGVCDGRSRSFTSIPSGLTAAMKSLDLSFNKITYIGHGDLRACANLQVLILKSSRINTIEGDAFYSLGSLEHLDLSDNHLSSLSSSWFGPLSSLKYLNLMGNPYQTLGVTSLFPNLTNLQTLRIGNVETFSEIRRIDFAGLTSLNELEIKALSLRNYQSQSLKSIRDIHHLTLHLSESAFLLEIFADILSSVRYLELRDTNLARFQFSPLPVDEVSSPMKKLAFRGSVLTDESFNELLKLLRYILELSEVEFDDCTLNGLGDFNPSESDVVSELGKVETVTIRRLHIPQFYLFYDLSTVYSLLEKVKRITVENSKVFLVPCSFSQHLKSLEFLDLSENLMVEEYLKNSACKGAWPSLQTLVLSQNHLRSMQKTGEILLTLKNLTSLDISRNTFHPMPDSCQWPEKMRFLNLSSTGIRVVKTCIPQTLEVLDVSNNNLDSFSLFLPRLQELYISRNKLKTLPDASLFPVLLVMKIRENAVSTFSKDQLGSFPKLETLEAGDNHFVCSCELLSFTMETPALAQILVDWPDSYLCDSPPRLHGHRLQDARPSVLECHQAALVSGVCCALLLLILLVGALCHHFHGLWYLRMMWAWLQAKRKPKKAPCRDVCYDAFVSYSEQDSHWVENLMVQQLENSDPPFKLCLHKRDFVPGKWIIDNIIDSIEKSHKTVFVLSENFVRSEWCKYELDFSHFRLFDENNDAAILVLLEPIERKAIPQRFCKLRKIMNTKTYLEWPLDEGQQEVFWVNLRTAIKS

TLR4 = molecular target: T1, TLR4 (Mus musculus, UniProt Q9QUK6); experiment: Cytokine mRNA in murine peritoneal macrophages stimulated with TLR4 agonists (LPS, HKEC)
T1 sequence (Q9QUK6 26-835): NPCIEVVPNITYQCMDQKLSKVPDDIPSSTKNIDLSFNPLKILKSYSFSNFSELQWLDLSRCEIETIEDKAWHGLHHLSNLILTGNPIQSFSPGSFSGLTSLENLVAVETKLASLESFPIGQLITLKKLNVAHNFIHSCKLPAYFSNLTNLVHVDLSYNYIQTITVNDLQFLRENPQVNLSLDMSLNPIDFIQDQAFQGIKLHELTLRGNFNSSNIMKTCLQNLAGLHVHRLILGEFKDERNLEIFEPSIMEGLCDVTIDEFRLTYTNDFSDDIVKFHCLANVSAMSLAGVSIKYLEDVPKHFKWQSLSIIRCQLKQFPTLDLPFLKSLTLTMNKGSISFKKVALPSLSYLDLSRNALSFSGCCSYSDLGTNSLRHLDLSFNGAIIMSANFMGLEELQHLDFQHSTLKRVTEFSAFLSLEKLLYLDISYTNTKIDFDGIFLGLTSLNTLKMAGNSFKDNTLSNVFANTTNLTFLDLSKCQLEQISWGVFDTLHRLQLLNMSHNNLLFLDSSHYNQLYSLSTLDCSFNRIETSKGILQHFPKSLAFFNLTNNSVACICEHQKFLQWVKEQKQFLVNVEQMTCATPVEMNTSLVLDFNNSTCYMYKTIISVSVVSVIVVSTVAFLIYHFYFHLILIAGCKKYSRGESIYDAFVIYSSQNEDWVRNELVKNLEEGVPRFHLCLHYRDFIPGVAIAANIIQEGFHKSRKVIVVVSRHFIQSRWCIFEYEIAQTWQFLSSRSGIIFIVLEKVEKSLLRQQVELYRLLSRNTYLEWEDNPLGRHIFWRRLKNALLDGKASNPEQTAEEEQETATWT
T1 sequence (Q9JHF9 19-160 partner): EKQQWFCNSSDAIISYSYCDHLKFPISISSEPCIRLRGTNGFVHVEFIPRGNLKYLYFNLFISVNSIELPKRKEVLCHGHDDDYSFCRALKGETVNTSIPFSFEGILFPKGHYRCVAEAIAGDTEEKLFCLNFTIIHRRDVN

TLR2/1 [3] = molecular target: T2, TLR2/1 (Homo sapiens, UniProt O60603); experiment: P3C-induced IL-8 mRNA (qRT-PCR) in HEK-TLR2 stable transfectants; set-up: expressed in transfected cells; settings: for percent inhibition, TLR2/1 versus TLR2/6 stimulation: HEK-TLR2 cells, human TLR2 signaling
T2 sequence (O60603 21-784): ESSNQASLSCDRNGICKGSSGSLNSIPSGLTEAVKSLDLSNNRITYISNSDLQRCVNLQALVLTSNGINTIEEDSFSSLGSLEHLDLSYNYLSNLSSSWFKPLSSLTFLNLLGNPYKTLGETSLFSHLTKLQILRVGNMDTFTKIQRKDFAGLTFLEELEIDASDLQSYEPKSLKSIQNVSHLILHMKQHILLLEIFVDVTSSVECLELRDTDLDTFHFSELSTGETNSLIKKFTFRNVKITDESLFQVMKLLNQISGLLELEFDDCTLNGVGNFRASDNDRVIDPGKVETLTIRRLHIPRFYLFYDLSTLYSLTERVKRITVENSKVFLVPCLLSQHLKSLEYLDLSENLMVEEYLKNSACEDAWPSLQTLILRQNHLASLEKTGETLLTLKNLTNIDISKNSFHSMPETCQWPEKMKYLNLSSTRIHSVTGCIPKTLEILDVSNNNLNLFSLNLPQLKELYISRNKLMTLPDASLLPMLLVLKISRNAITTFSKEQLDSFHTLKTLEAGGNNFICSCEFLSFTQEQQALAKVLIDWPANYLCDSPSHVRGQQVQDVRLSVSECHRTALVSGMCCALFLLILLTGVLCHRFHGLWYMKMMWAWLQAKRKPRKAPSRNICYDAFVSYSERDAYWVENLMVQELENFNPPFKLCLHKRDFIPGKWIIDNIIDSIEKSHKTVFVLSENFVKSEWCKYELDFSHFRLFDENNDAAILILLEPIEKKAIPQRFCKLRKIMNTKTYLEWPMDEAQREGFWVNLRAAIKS

TLR2/1 [4] = molecular target: T2, TLR2/1; experiment: NF-κβ (ELAM)-luciferase reporter assay in transiently transfected HEK293T cells, P3C; set-up: expressed in transfected cells; host or cells: HEK293T, transient transfection (Superfect); settings: P3C 50 ng/mL 5 hrs; for IC50: NF-κβ reporter assay in HEK293T cells, 1 μM-250 μM, read-out: IC50 for human TLR2/1 signaling
Procedure: (§1) FIG. 8. C29 inhibits hTLR2/1- and hTLR2/6-induced NF-κβ activation. (A, B) HEK293T cells were transiently transfected with reporter constructs for ELAM-luciferase, Renilla-luciferase, and either pcDNA3.1 or pcDNA3-YFP-hTLR2. Cells were pretreated for 1 hr with media, vehicle (65 μM NaOH), or C29 (50 μM) and treated with P3C or P2C (50 ng/mL) for 5 hrs in the presence of media, vehicle, or C29. Lysates were prepared and the dual-luciferase assay performed. Results are representative of 3 independent experiments each carried out in duplicate (**, p≤0.01; ***, p≤0.001).
(§2) FIG. 9. C29 is species-specific and blocks human TLR2/6 signaling, but not murine TLR2/6 signaling. (A-D) HEK293T cells were transiently transfected with reporter constructs for ELAM-luciferase, Renilla-luciferase, and pcDNA3.1 in combination with/without pcDNA3-YFP-hTLR2, pFLAG-CMV1-hTLR1, pcDNA3-CFP-hTLR6, pcDNA3.1-mTLR2-CFP, pcDNA3.1-mTLR1-YFP, or pcDNA3.1-mTLR6-CFP. Cells were pretreated for 1 hr with media, vehicle (65 μM NaOH), or C29 (50 μM) and then treated with P3C or P2C (50 ng/mL) for 5 hrs in the presence of media, vehicle, or C29. Lysates were prepared and the dual-luciferase assay performed. Panels A and B represent the mean±SEM from 3 independent experiments and panels C and D represent the mean±SEM from 2 independent experiments each carried out in duplicate (*, p≤0.05; **, p≤0.01).
FIG. 12. C29 L blocks human TLR2/1 and TLR2/6 signaling comparably to C29 in HEK293T cells. (A-D) HEK293T cells were transiently transfected with reporter constructs for ELAM-luciferase, Renilla-luciferase, and pcDNA3-YFP-hTLR2. Cells were pretreated for 1 hr with C29 or C29L (1 μM-250 μM) and treated with P3C or P2C (50 ng/mL) for 5 hrs in the presence of C29 or C29L. […]
HEK293T cells were cultured and plated overnight in 12-well tissue culture plates (2×10^5 cells/well). […] Cells were lysed in a passive lysis buffer (Promega, Madison, WI) and firefly luciferase and Renilla luciferase activities were measured using the dual luciferase reporter assay system (Promega, Madison, WI). […]

TLR2/6 [5] = molecular target: TLR2/6 (Homo sapiens, UniProt O60603); experiment: NF-κβ (ELAM)-luciferase reporter assay in transiently transfected HEK293T cells, P2C; set-up: expressed in transfected cells; host or cells: HEK293T, transient transfection (Superfect); settings: P2C 50 ng/mL 5 hrs; for IC50: NF-κβ reporter assay in HEK293T cells, 1 μM-250 μM, read-out: IC50 for human TLR2/6 signaling
Chain of TLR2/6 (Homo sapiens, UniProt O60603) (O60603 21-784): as above
Procedure: as §1, §2
FIG. 12. C29 L blocks human TLR2/1 and TLR2/6 signaling comparably to C29 in HEK293T cells. (A-D) HEK293T cells were transiently transfected with reporter constructs for ELAM-luciferase, Renilla-luciferase, and pcDNA3-YFP-hTLR2. Cells were pretreated for 1 hr with C29 or C29L (1 μM-250 μM) and treated with P3C or P2C (50 ng/mL) for 5 hrs in the presence of C29 or C29L. Lysates were prepared and dual-luciferase assay performed. Data is representative of 2 independent experiments each carried out in duplicate.
HEK293T cells were cultured and plated overnight in 12-well tissue culture plates (2×10^5 cells/well). Transfection mixtures consisted of pcDNA3-YFP-hTLR2 or pcDNA3.1 control vector (1 μg/well each), pELAM (NF-κB)-luciferase (0.2 μg/well), and pRL-TK-Renilla luciferase (0.05 μg/well). Transfection was carried out using Superfect transfection reagent, cells were recovered for 48 h, and treated for 5 h with medium or stimuli in the presence/absence of C29. Cells were lysed in a passive lysis buffer (Promega, Madison, WI) and firefly luciferase and Renilla luciferase activities were measured using the dual luciferase reporter assay system (Promega, Madison, WI). […]

[6] = HEK293T expressing human TLR2, C29 50 μM

Chain of TLR2/1 (Mus musculus, UniProt Q9QUN7) (Q9QUN7 25-784): as the sequence (Q9QUN7 25-784) above

TLR2/1-induced TNF-α gene expression (TLR2/1 [1]; murine macrophages, 25 μM or 50 μM, P3C 50 ng/mL 1 hr)	TLR2/6 signaling pathway (TNF-α mRNA) (TLR2/6 [2]; 25 μM or 50 μM, P2C 100 ng/mL 1 hr)	TLR4 signaling pathway (TNF-α mRNA) (TLR4; 25 μM or 50 μM, LPS 100 ng/mL 1 hr)	Structure (SMILES)	percent inhibition, TLR2/1 versus TLR2/6 stimulation (TLR2/1 [3])	IC50 (TLR2/1 [4]) [µM]	IC50 (TLR2/6 [5]) [µM]	P3C-induced IL-1β mRNA (TLR2/1 [1]; murine macrophages, C29 50 μM, P3C 50 ng/mL 3 hrs)	LTA SA-induced IL-1β mRNA (TLR2/1 [1]; murine macrophages, C29 50 μM, S. aureus LTA 1 μg/mL 3 hrs)	P3C-induced TNF-α mRNA (TLR2/1 [1]; murine peritoneal macrophages, C29 25 μM or 50 μM, P3C 50 ng/mL 1 hr)	P3C-induced IL-12 p40 protein (ELISA) (TLR2/1 [1]; murine peritoneal macrophages, C29 50 μM, P3C 50 ng/mL 4 or 6 hrs)	zymosan-induced IL-1β mRNA (TLR2/6 [2]; C29 50 μM, zymosan 10 μg/mL 3 hrs)	heat-killed Escherichia coli (HKEC)-induced IL-1β mRNA (TLR4; C29 50 μM, MOI=0.1, 4 hrs, signals predominately through TLR4)	P3C-induced IL-8 mRNA (TLR2/1 [3]; C29 10 μM or 50 μM, P3C 200 ng/mL 1 hr, HEK-TLR2 stable transfectants)	P3C-induced NF-κβ-luciferase activity (TLR2/1 [4]; [6])	P2C-induced NF-κβ-luciferase activity (TLR2/6 [5]; [6])	hTLR2/6-induced NF-κβ-luciferase activity (TLR2/6 [5]; HEK293T transfected with human TLR2 and TLR6, C29 50 μM)
dose-dependently inhibited	no effect	no effect	COc1cccc(C=O)c1O [Compound C29L, ortho-vanillin]	consistently greater when TLR2/1 is stimulated	24.2	37.2										
			COc1cccc(/C=N/c2cccc(C(=O)O)c2C)c1O [Compound C29]	consistently greater when TLR2/1 is stimulated	19.7	37.6	specifically blocked	specifically blocked	significantly reduced	significantly reduced	did not inhibit	not blocked	blocked P3C- and P2C-induced IL-8 mRNA dose-dependently	inhibited	inhibited	significantly inhibited
